The source of these data is patent publication US20250002507A1, “7,8-DIHYDRO-5H-1,6-NAPHTHYRIDINE DERIVATIVES AS POSITIVE ALLOSTERIC MODULATORS OF THE MUSCARINIC ACETYLCHOLINE RECEPTOR M4 FOR TREATING NEUROLOGICAL AND PSYCHIATRIC DISORDERS” (Vanderbilt University, priority 2021, published 2025).

In general, Emax refers to the maximal effect, on the per cent scale that the assay sets. What is called EC50 is the concentration needed to bring the measured effect to its halfway point.

The target in data set [1] is T1, Human M4 (Homo sapiens, UniProt P08173).
T1 construct: expressed in transfected cells
T1 sequence (P08173 1-479): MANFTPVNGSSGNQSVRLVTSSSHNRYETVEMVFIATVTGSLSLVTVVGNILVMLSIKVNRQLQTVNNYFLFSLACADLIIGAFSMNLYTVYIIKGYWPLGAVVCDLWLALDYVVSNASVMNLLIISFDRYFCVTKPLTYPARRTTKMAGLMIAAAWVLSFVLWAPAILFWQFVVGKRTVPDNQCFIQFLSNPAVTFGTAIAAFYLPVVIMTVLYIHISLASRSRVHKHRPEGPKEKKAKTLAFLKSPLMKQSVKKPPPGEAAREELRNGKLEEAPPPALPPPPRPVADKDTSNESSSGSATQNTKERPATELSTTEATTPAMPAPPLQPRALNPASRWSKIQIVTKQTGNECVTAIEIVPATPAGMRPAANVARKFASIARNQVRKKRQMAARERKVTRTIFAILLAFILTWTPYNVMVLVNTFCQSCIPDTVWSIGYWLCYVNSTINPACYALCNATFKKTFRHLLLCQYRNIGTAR
The data set is described as follows: mAChR M4 cell-based functional assay (calcium flux, potentiation of EC20 acetylcholine response), hM4-Gqi5 CHO-K1 cells. Particulars: Table 4; for Emax at 30 µM: CHO-K1, Human M4, % ACh maximum at 30 μM, read-out: Emax (% ACh maximum at 30 μM); for EC50: potentiation of EC20 acetylcholine response, calcium flux, CHO-K1 cells, read-out: Human M4 EC50. A digest of the protocol: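 Positive allosteric modulation was scored as a concentration-dependent rise in the response to an EC20 dose of acetylcholine, added 144 s after the compound. Human M4-Gqi5 CHO-K1 cells carried Fluo-4 dye, and compounds ran as 11-point, 3-fold dilution series. EC50 and Emax came from four-parameter logistic fits of the FDSS fluorescence-ratio traces.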
(Calcium flux is commonly read through the fluorescence of an indicator in the cells.)

For data set [2], the system named is patients. The settings on record: patients treated with AChE inhibitor; cited from earlier work.
In data set [3] the test system is Alzheimer's disease patients. Particulars: Bodick et al. 1997; cited from earlier work.

The structures appear in SMILES notation.

For `[2H]C1([2H])Cc2ncc(Nc3ccncc3F)cc2C([2H])([2H])N1c1nn2cnnc2c(C)c1C` [Compound 358, 6-(7,8-dimethyl-[1,2,4]triazolo[4,3-b]pyridazin-6-yl)-N-(3-fluoropyridin-4-yl)-5,6,7,8-tetrahydro-1,6-naphthyridin-5,5,7,7-d4-3-amine], in data set [1], the Emax at 30 µM was 96% and the EC50 came to 3 nM. With `[2H]C1([2H])Cc2ncc(Nc3ccccc3F)cc2C([2H])([2H])N1c1nn2cnnc2cc1C` [Compound 359, N-(2-fluorophenyl)-6-(7-methyl-[1,2,4]triazolo[4,3-b]pyridazin-6-yl)-5,6,7,8-tetrahydro-1,6-naphthyridin-5,5,7,7-d4-3-amine], in data set [1], the Emax at 30 µM turned out to be 116% and the EC50 was found to be 7 nM. The like results for `Cc1cc2nncn2nc1N1CCc2ncc(Nc3ccncc3F)cc2C1` [Compound 360, N-(3-fluoropyridin-4-yl)-6-(7-methyl-[1,2,4]triazolo[4,3-b]pyridazin-6-yl)-5,6,7,8-tetrahydro-1,6-naphthyridin-3-amine] were, in that order, 100% and 5 nM. In the case of `Cc1c(N2CCc3ncc(Nc4ccncc4F)cc3C2)nn2cnnc2c1C` [Compound 361, 6-(7,8-dimethyl-[1,2,4]triazolo[4,3-b]pyridazin-6-yl)-N-(3-fluoropyridin-4-yl)-5,6,7,8-tetrahydro-1,6-naphthyridin-3-amine], in data set [1], the maximal effect (Emax) at 30 µM was 100% and the EC50 was determined as 2 nM. The like results for `Cc1cc(Nc2cnc3c(c2)CN(c2nn4cnnc4cc2C)CC3)c(F)cn1` [Compound 362, N-(5-fluoro-2-methylpyridin-4-yl)-6-(7-methyl-[1,2,4]triazolo[4,3-b]pyridazin-6-yl)-5,6,7,8-tetrahydro-1,6-naphthyridin-3-amine] were, in that order, 97% and 51 nM. The like results for `Cc1cc(Nc2cnc3c(c2)CN(c2nn4cnnc4c(C)c2C)CC3)c(F)cn1` [Compound 363, 6-(7,8-dimethyl-[1,2,4]triazolo[4,3-b]pyridazin-6-yl)-N-(5-fluoro-2-methylpyridin-4-yl)-5,6,7,8-tetrahydro-1,6-naphthyridin-3-amine] were, in that order, 93% and 26 nM. Take `Cc1cnccc1Nc1cnc2c(c1)CN(c1nn3cnnc3cc1C)CC2` [Compound 364, 6-(7-methyl-[1,2,4]triazolo[4,3-b]pyridazin-6-yl)-N-(3-methylpyridin-4-yl)-5,6,7,8-tetrahydro-1,6-naphthyridin-3-amine]: in data set [1], the Emax at 30 µM stood at 83% and the EC50 stood at 2500 nM. The like results for `Cc1cnccc1Nc1cnc2c(c1)CN(c1nn3cnnc3c(C)c1C)CC2` [Compound 365, 6-(7,8-dimethyl-[1,2,4]triazolo[4,3-b]pyridazin-6-yl)-N-(3-methylpyridin-4-yl)-5,6,7,8-tetrahydro-1,6-naphthyridin-3-amine] were, in that order, 63% and 112 nM. In the case of `Nc1c2c(nc3ccccc13)CCCC2` [tacrine], in data set [2], the “elevated liver transaminases, share of patients” value is listed as “about 30%”. `CCCCCCOc1nsnc1C1=CCCN(C)C1` [xanomeline]: the “effect on psychotic behavioral symptoms” value in data set [3] is reported as “reduce psychotic behavioral symptoms”.
